Holding throughout (assay): AK assay 384-well format, Prestwick library screening
In one test the test system is E. faecium. The test is classed as cell-based, Enterococcus faecium. Particulars: Enterococcus faecium, 3 h, 50 μM final drug concentration.
Test [1] relates to S. aureus strain USA300-0114. The test is classed as cell-based, Staphylococcus aureus. Particulars: Staphylococcus aureus, USA300, 3 h, 50 μM final drug concentration.
For the next test, the system named is K. pneumoniae. The test is classed as cell-based, Klebsiella pneumoniae. The conditions noted are these: Klebsiella pneumoniae, 3 h, 50 μM final drug concentration.
In test [2] the test system is A. baumannii strain 98-37-09. The class given is cell-based, Acinetobacter baumannii. The conditions noted are these: Acinetobacter baumannii, 983709, 3 h, 50 μM final drug concentration.
A further test deals with P. aeruginosa. The test is classed as cell-based, Pseudomonas aeruginosa. The conditions noted are these: Pseudomonas aeruginosa, 3 h, 50 μM final drug concentration.
A further test deals with E. cloacae. The test is classed as cell-based, Enterobacter cloacae. Particulars: Enterobacter cloacae, 3 h, 50 μM final drug concentration.
The next test concerns E. coli. The test is classed as cell-based, Escherichia coli. Particulars: Escherichia coli, 3 h, 50 μM final drug concentration.
Setting [3] is: 384-well format, cutoff for positive-scoring molecules 3-fold increase, read-out: AK-based Prestwick Library Screening Results, E. faecium (increase in extracellular AK activity).
Where [4] appears, read: 384-well format, cutoff for positive-scoring molecules 3-fold increase, read-out: AK-based Prestwick Library Screening Results, S. aureus (increase in extracellular AK activity).
[5] abbreviates: 384-well format, cutoff for positive-scoring molecules 3-fold increase, read-out: AK-based Prestwick Library Screening Results, K. pneumoniae (increase in extracellular AK activity).
[6] abbreviates: 384-well format, cutoff for positive-scoring molecules 3-fold increase, read-out: AK-based Prestwick Library Screening Results, A. baumannii (increase in extracellular AK activity).
Setting [7] is: 384-well format, cutoff for positive-scoring molecules 3-fold increase, read-out: AK-based Prestwick Library Screening Results, P. aeruginosa (increase in extracellular AK activity).
Where [8] appears, read: 384-well format, cutoff for positive-scoring molecules 3-fold increase, read-out: AK-based Prestwick Library Screening Results, E. cloacae (increase in extracellular AK activity).
The mark [9] stands for this setting: 384-well format, cutoff for positive-scoring molecules 3-fold increase, read-out: AK-based Prestwick Library Screening Results, E. coli (increase in extracellular AK activity).
Where [10] appears, read: planktonic, cutoff for positive-scoring molecules 3-fold increase, read-out: AK-based Prestwick Library Screening Results, E. faecium (fold increase in extracellular AK activity).
Where [11] appears, read: planktonic, cutoff for positive-scoring molecules 3-fold increase, read-out: AK-based Prestwick Library Screening Results, S. aureus (fold increase in extracellular AK activity).
The mark [12] stands for this setting: planktonic, cutoff for positive-scoring molecules 3-fold increase, read-out: AK-based Prestwick Library Screening Results, K. pneumoniae (fold increase in extracellular AK activity).
[13] abbreviates: planktonic, cutoff for positive-scoring molecules 3-fold increase, read-out: AK-based Prestwick Library Screening Results, A. baumannii (fold increase in extracellular AK activity).
The mark [14] stands for this setting: planktonic, cutoff for positive-scoring molecules 3-fold increase, read-out: AK-based Prestwick Library Screening Results, P. aeruginosa (fold increase in extracellular AK activity).
Setting [15] is: planktonic, cutoff for positive-scoring molecules 3-fold increase, read-out: AK-based Prestwick Library Screening Results, E. cloacae (fold increase in extracellular AK activity).
Setting [16] is: planktonic, cutoff for positive-scoring molecules 3-fold increase, read-out: AK-based Prestwick Library Screening Results, E. coli (fold increase in extracellular AK activity).
The mark [17] stands for this setting: planktonic E. faecium, 384-well, cutoff for positive-scoring molecules 3-fold increase, read-out: AK-based Prestwick Library Screening Results: E. faecium (increase in extracellular AK activity).
Setting [18] is: planktonic S. aureus, 384-well, cutoff for positive-scoring molecules 3-fold increase, read-out: AK-based Prestwick Library Screening Results: S. aureus (increase in extracellular AK activity).
Where [19] appears, read: planktonic K. pneumoniae, 384-well, cutoff for positive-scoring molecules 3-fold increase, read-out: AK-based Prestwick Library Screening Results: K. pneumoniae (increase in extracellular AK activity).
Setting [20] is: planktonic A. baumannii, 384-well, cutoff for positive-scoring molecules 3-fold increase, read-out: AK-based Prestwick Library Screening Results: A. baumannii (increase in extracellular AK activity).
The mark [21] stands for this setting: planktonic P. aeruginosa, 384-well, cutoff for positive-scoring molecules 3-fold increase, read-out: AK-based Prestwick Library Screening Results: P. aeruginosa (increase in extracellular AK activity).
[22] abbreviates: planktonic E. cloacae, 384-well, cutoff for positive-scoring molecules 3-fold increase, read-out: AK-based Prestwick Library Screening Results: E. cloacae (increase in extracellular AK activity).
[23] abbreviates: planktonic E. coli, 384-well, cutoff for positive-scoring molecules 3-fold increase, read-out: AK-based Prestwick Library Screening Results: E. coli (increase in extracellular AK activity).

Counter-ions that a name gives are not always drawn. Like-named read-outs stand apart in the source and are kept apart here.

This note sets out measurements from US10004701B2, “Methods and compositions for treating infection” (UNIVERSITY OF ROCHESTER, priority 2012, dated 2018).

For the compound `NC(N)=Nc1nc(CSCCC(N)=NS(N)(=O)=O)cs1` [Famotidine], the fold induction at 50 µM stood at 0.8 in the test on E. faecium (setting [3]); 0.5 in test [1] (setting [4]); 0.8 in the test on K. pneumoniae (setting [5]); 0.8 in test [2] (setting [6]); 0.8 in the test with P. aeruginosa (setting [7]); 1 in the test on E. cloacae (setting [8]). In addition, the fold induction at 50 µM in the test on E. coli (setting [9]) turned out to be 0.9.

As for `CC(C)c1c(CN(C)C(C)Cc2ccccc2)n(C)n(-c2ccccc2)c1=O` (stereo not drawn) [Famprofazone], the fold induction at 50 µM in the test with E. faecium ([…], read-out: AK-based Prestwick Library Screening Results, E. faecium (fold increase in extracellular AK activity)) turned out to be 1; in test [1] ([…], read-out: AK-based Prestwick Library Screening Results, S. aureus (fold increase in extracellular AK activity)), 0.8; with K. pneumoniae ([…], read-out: AK-based Prestwick Library Screening Results, K. pneumoniae (fold increase in extracellular AK activity)), 1.1; in test [2] ([…], read-out: AK-based Prestwick Library Screening Results, A. baumannii (fold increase in extracellular AK activity)), 1.1; in the test with P. aeruginosa ([…], read-out: AK-based Prestwick Library Screening Results, P. aeruginosa (fold increase in extracellular AK activity)), 1.2; in the test on E. cloacae ([…], read-out: AK-based Prestwick Library Screening Results, E. cloacae (fold increase in extracellular AK activity)), 1.5. Besides, the fold induction at 50 µM with E. coli ([…], read-out: AK-based Prestwick Library Screening Results, E. coli (fold increase in extracellular AK activity)) amounted to 1.2.

As for `O=C(O)Cc1ccc(-c2ccccc2)cc1` [Felbinac], the fold induction at 50 µM with E. faecium (setting [10]) was found to be 0.9; in test [1] (setting [11]) it was 0.6; with K. pneumoniae (setting [12]), 0.6; in test [2] (setting [13]) it was 0.8; in the test on P. aeruginosa (setting [14]) it was 0.7; in the test on E. cloacae (setting [15]) it was 1. Also, in the test with E. coli (setting [16]), the fold induction at 50 µM is 0.7.

Regarding `CCOC(=O)C1=C(C)NC(C)=C(C(=O)OC)C1c1cccc(Cl)c1Cl` (stereo not drawn) [Felodipine], the fold induction at 50 µM in the test on E. faecium (planktonic, cutoff for positive 3-fold increase, read-out: AK-based Prestwick Library Screening Results, E. faecium (fold increase in extracellular AK activity)) worked out at 1.3; in test [1] (planktonic, cutoff for positive 3-fold increase, read-out: AK-based Prestwick Library Screening Results, S. aureus (fold increase in extracellular AK activity)), 2.5; in the test with K. pneumoniae (planktonic, cutoff for positive 3-fold increase, read-out: AK-based Prestwick Library Screening Results, K. pneumoniae (fold increase in extracellular AK activity)) it was 1; in test [2] (planktonic, cutoff for positive 3-fold increase, read-out: AK-based Prestwick Library Screening Results, A. baumannii (fold increase in extracellular AK activity)), 3; in the test with P. aeruginosa (planktonic, cutoff for positive 3-fold increase, read-out: AK-based Prestwick Library Screening Results, P. aeruginosa (fold increase in extracellular AK activity)), 1; with E. cloacae (planktonic, cutoff for positive 3-fold increase, read-out: AK-based Prestwick Library Screening Results, E. cloacae (fold increase in extracellular AK activity)) it was 1.7. For the same compound, the fold induction at 50 µM in the test on E. coli (planktonic, cutoff for positive 3-fold increase, read-out: AK-based Prestwick Library Screening Results, E. coli (fold increase in extracellular AK activity)) was determined as 1.2.

As for `COC(=O)Nc1nc2ccc(Sc3ccccc3)cc2[nH]1` [Fenbendazole], the fold induction at 50 µM in the test on E. faecium (setting [17]) was 0.9; in test [1] (setting [18]), 0.6; in the test with K. pneumoniae (setting [19]), 0.7; in test [2] (setting [20]), 0.9; with P. aeruginosa (setting [21]), 0.9; in the test on E. cloacae (setting [22]), 1.3. Moreover, the fold induction at 50 µM with E. coli (setting [23]) worked out at 0.9.

As to `O=C(O)CCC(=O)c1ccc(-c2ccccc2)cc1` [Fenbufen], the fold induction at 50 µM in the test with E. faecium (setting [17]) worked out at 0.8; in test [1] (setting [18]) it was 0.7; in the test on K. pneumoniae (setting [19]) it was 0.8; in test [2] (setting [20]) it was 1; with P. aeruginosa (setting [21]) it was 0.8; in the test on E. cloacae (setting [22]), 1.6. Moreover, the fold induction at 50 µM in the test on E. coli (setting [23]) was 0.8.

Turning to `CC(NCCC(c1ccccc1)c1ccccc1)c1ccccc1` (stereo not drawn) [Fendiline hydrochloride], the fold induction at 50 µM in the test on E. faecium (setting [3]) worked out at 1.1; in test [1] (setting [4]), 0.8; with K. pneumoniae (setting [5]) it was 0.8; in test [2] (setting [6]), 1.5; in the test on P. aeruginosa (setting [7]), 1.1; with E. cloacae (setting [8]), 0.9. The fold induction at 50 µM in the test with E. coli (setting [9]) is 1.

As to `CC(C)OC(=O)C(C)(C)Oc1ccc(C(=O)c2ccc(Cl)cc2)cc1` [Fenofibrate], the fold induction at 50 µM stood at 0.8 in the test on E. faecium (setting [3]); 0.8 in test [1] (setting [4]); 0.6 with K. pneumoniae (setting [5]); 0.7 in test [2] (setting [6]); 0.8 in the test with P. aeruginosa (setting [7]); 1.2 in the test with E. cloacae (setting [8]). Besides, in the test on E. coli (setting [9]), the fold induction at 50 µM is 0.8.

On to `CC(C(=O)O)c1cccc(Oc2ccccc2)c1` (stereo not drawn) [Fenoprofen calcium salt dihydrate], for which the fold induction at 50 µM with E. faecium (setting [10]) turned out to be 0.9; in test [1] (setting [11]), 0.8; with K. pneumoniae (setting [12]), 0.7; in test [2] (setting [13]) it was 0.8; in the test on P. aeruginosa (setting [14]), 0.8; in the test with E. cloacae (setting [15]), 1.4. Besides, in the test with E. coli (setting [16]), the fold induction at 50 µM came to 0.8.
